The values that follow are results of earlier work, collected in patent US20250288585A1, “SYNERGISTIC COMPOSITIONS FOR ENHANCED HAIR GROWTH AND METHODS FOR TREATING HAIR LOSS” (The Johns Hopkins University, priority 2024, published 2025).

Data set [1] has as its system follicular sulfotransferase. Conditions: topical 0.1% tretinoin, plucked hairs, in vitro.
For data set [2] the following is noted: liposomal hydrogel system.
The subject of data set [3] is subjects with androgenetic alopecia. The settings on record: topical tretinoin alone.

In the case of `CC1=C(/C=C/C(C)=C/C=C/C(C)=C/C(=O)O)C(C)(C)CCC1` [tretinoin, all-trans-retinoic acid], the “effect on expression of follicular sulfotransferase” value in data set [1] is “influences the expression of follicular sulfotransferase”. In addition, the “permeation through skin ex vivo” value in data set [2] is given as “retained on the skin”. Besides, the “subjects with some hair regrowth” value in data set [3] is given as “approximately 58%”.
Turning to `Nc1cc(N2CCCCC2)nc(N)[n+]1[O-]` [minoxidil], the “permeation through skin ex vivo” value in data set [2] is “enhanced the permeation”.
